Each structure is given as a SMILES string. The source made the active and inactive calls. The rule behind the calls is not given here.

The test is described as follows: non-covalent RecA intein splicing inhibitors, dose response, biochemical, cell-free, fluorescence, secondary screen (AID 449750).
On to `CCc1ccc(NC(=O)c2nc(S(=O)(=O)Cc3ccccc3)ncc2Cl)cc1`, for which the AC50 (as a rule, the concentration at which the activity in the assay is half-maximal) was > 38 µM (inactive).
To `O=C(NCc1ccc2c(c1)OCO2)c1nc(S(=O)(=O)Cc2ccccc2)ncc1Cl` belongs > 38 µM (inactive); to `CC1=NN(c2ccccc2)C(=O)/C1=C/c1cn(C)c2ccccc12`, > 38 µM (inactive).
To `CCOc1cc(/C=C2\C(=O)N(CCC#N)N=C2C)ccc1OCC(N)=O` belongs 12.6 µM.
In the case of `CC1=NN(C)C(=O)C1Cc1c(F)cccc1Cl` (centres undefined), the AC50 was > 38 µM (inactive).
As for `O=[N+]([O-])/C(C(Cl)=C(Cl)Cl)=C(/Sc1ccccc1)N1CCCCC1`, the figure is > 38 µM (inactive); as for `Cc1ccc(C(c2c(C)[nH][nH]c2=O)c2c(C)[nH][nH]c2=O)cc1[N+](=O)[O-]`, 32.1 µM.
To `COc1cc(Br)c(C(=O)c2nccc3cc(OC)c(OC)cc23)cc1OC` belongs 6.24 µM; to `Cn1nc(-c2ccccn2)nc2c(=O)n(C)c(=O)nc1-2`, 0.176 µM.
As for `CC(C)(C)OC(=O)NCCc1nnc(S(=O)(=O)Cc2ccc(Cl)cc2Cl)o1`, the figure is > 38 µM (inactive); as for `O=C(Cc1cc(=O)[nH][nH]1)N/N=C/C=C/c1ccccc1`, 20.8 µM.
As for `CCCc1c(-c2ccc(O)cc2)nn(-c2ccc(O)cc2)c1-c1ccc(O)cc1`, the AC50 was 4.37 µM.
To `CN1CCN(c2ccc([N+](=O)[O-])c3no[n+]([O-])c23)CC1` belongs > 38 µM (inactive); to `CCCCc1ccc(NC(=O)CSCc2cc(=O)[nH][nH]2)cc1`, 27.1 µM; to `CC(C)(C)c1csc(NC(=O)c2c(F)c(F)c(F)c(F)c2F)n1`, 16.3 µM.
As for `Cc1ccc(C2CC(c3cccs3)=NN2C(=O)CCl)cc1` (centres undefined), the figure is 1.68 µM; as for `CCOc1ccc(S(=O)(=O)Nc2cc(SCC(=O)O)c(O)c3ccccc23)cc1`, 2.81 µM; as for `COc1ccc(OCc2cc(C(=O)NC3CCOC(C)(C)C3)no2)c2ccccc12` (centres undefined), 26 µM.
For `COc1cc(NCCCC(C)N)c2ncccc2c1` (centres undefined), the AC50 was 18.1 µM.
As for `COc1ccc(N(C(=O)CCl)C(C(=O)NCCc2ccccc2)c2cccs2)cc1Cl` (centres undefined), the figure is 0.672 µM; as for `Oc1ccc(N=Cc2sc3ccccc3c2Cl)cc1`, > 38 µM (inactive).
With `CCCCN(C(=O)c1cccc2c(=O)c(C)c(-c3ccccc3)oc12)c1ccccc1`, the AC50 was 6.5 µM.
On to `O=C1/C(=C/c2ccc3c(c2)OCO3)CCC/C1=C\c1ccc2c(c1)OCO2`, for which the AC50 was > 38 µM (inactive).
On to `CCc1ccc(S(=O)(=O)/N=C2\C=CC(=O)c3ccccc32)cc1`, for which the concentration at half-maximal activity (AC50) is 2.6 µM.
With `O=C(NC1=C(Nc2ccc(F)cc2)C(=O)c2ccccc2C1=O)c1ccc(Cl)cc1`, the AC50 is 13.6 µM.
In the case of `O=C(Nc1ncc([N+](=O)[O-])s1)c1ccco1`, the AC50 is > 38 µM (inactive).
Regarding `CS(=O)(=O)N1CCC(Oc2ccccc2C(=O)N2CCCCC2CO)CC1` (centres undefined), the AC50 was > 38 µM (inactive).
To `COc1cc(C2(c3ccc(O)c(OC)c3)C(=O)Nc3c(Br)cc(Br)cc32)ccc1O` belongs 21.5 µM; to `CCOC(=O)C(C(=O)OCC)c1cc(Br)c2noc3c2c1C(=O)c1ccccc1-3`, 8.74 µM.
`O=C(NCc1ccccc1)c1nc(S(=O)(=O)Cc2ccccc2)ncc1Cl`: the AC50 was > 38 µM (inactive).
On to `CC(=O)NCCn1c(SCc2ccccc2C)nc2ccccc2c1=O`, for which the AC50 was > 38 µM (inactive).
As for `O=C(CCl)Nc1cccc(S(=O)(=O)N2CCCCCC2)c1`, the figure is > 38 µM (inactive); as for `COc1ccc(NC(=O)/C(C#N)=C/c2ncc([N+](=O)[O-])n2C)c(OC)c1`, > 38 µM (inactive).
On to `C/C(=N\NC(=O)c1ccncc1)c1cc2ccccc2oc1=O`, for which the AC50 was > 38 µM (inactive).
Regarding `N#CC1=C(N)Oc2n[nH]c(-c3cccs3)c2C1c1ccsc1` (centres undefined), the concentration at half-maximal activity (AC50) is 3.98 µM.
As for `CC(C)(C)c1ccc(C(=O)Cn2cnnc2C#N)cc1`, the figure is > 38 µM (inactive); as for `CC1=C(C)/C(=N/OC(=O)c2cccc([N+](=O)[O-])c2)C=CC1=O`, > 38 µM (inactive).
As for `Cc1cc(C(=O)CCl)c(C)n1CCc1ccccc1`, the concentration at half-maximal activity (AC50) was 14.2 µM.
To `Oc1cc(O)c2c(c1)O[C@H](c1ccc(O)c(O)c1)[C@H](O)C2` belongs > 38 µM (inactive).
To `O=C1NCCCC2c3c(cc(Br)c(O)c3Br)OC12N1CCCCC1` (centres undefined) belongs > 38 µM (inactive); to `O=C(O)c1ccc(NC2=C(n3nnc4ccccc43)C(=O)c3ccccc3C2=O)cc1`, 3.84 µM.
Consider `COC(=O)CN1C(c2ccc(Cl)cc2)=Nc2ccc(Cl)cc2C1c1ccccc1` (centres undefined), for which the half-maximal activity concentration (AC50) was 5.48 µM.
Consider `COC(=O)c1nc(NC(=O)c2ccc(C(C)(C)C)cc2)n[nH]1`, for which the AC50 was > 38 µM (inactive).
In the case of `Cc1ccc(-c2cc(NC(=O)CCl)n(-c3ccccc3)n2)cc1`, the concentration at half-maximal activity (AC50) is 7.65 µM.
To `CCN(CC)c1ccc2c(c1)CCCN2` belongs > 12 µM (inactive); to `O=C1c2ccccc2-n2c1nc1ccccc1c2=O`, > 38 µM (inactive).
Consider `O=Cc1ccc(Sc2nnc(-c3ccccc3)o2)c([N+](=O)[O-])c1`, for which the AC50 is 21 µM.
With `CCCc1[nH]nc2c1C(c1ccc(OC(=O)N3CCOCC3)c(OC)c1)C(C#N)=C(N)O2` (centres undefined), the AC50 is > 38 µM (inactive).
Regarding `CC(C)c1[nH]nc2c1C(c1cccs1)C(C#N)=C(N)O2` (centres undefined), the AC50 is > 38 µM (inactive).
Turning to `CN1CCN(C2=C(Cl)C(=O)C(c3cnc(N4CCCCC4)s3)=C(Cl)C2=O)CC1`, the AC50 was 3.1 µM.
Regarding `CC(C)c1[nH]nc2c1C(c1ccco1)C(C#N)=C(N)O2` (centres undefined), the AC50 was > 38 µM (inactive).
As for `CSc1nc(O)c(Nc2cccc(Cl)c2)c(=O)[nH]1`, the figure is > 38 µM (inactive); as for `Cc1[nH][nH]c(=O)c1C(c1ccc(O)c(Br)c1)c1c(C)[nH][nH]c1=O`, 13.5 µM.
As for `O=S(=O)(c1ccc(Cl)c(Cl)c1)c1snnc1-c1ccccc1`, the figure is 9.72 µM; as for `CC1CCCCC1NC(=O)NC(=O)CCl` (centres undefined), 39.8 µM; as for `Cc1cccc(C(=O)c2cnc3ccccc3c2-c2ccccc2)c1`, 14.4 µM.
To `Cc1cccc(N2CC(C(=O)OCC(=O)c3ccc(OC(=O)c4cccs4)cc3)CC2=O)c1C` (centres undefined) belongs > 38 µM (inactive); to `CCOC(=O)c1nc(C)n(-c2ccc(Cl)cc2)n1`, > 38 µM (inactive).
For `COc1ccc(CNC(=O)c2nc(S(=O)(=O)Cc3ccccc3)ncc2Cl)cc1`, the AC50 was > 38 µM (inactive).
As to `O=C(CCl)NCc1c(Cl)cccc1-n1cccc1`, the half-maximal activity concentration (AC50) is 7.58 µM.
To `CCOC(=O)Cc1c(C)c2c(C)[nH]nc2oc1=O` belongs > 38 µM (inactive); to `C=CCOC(=O)C1=C(C)NC(=O)NC1c1ccc(OC(=O)c2ccco2)c(OC)c1` (centres undefined), > 38 µM (inactive).
As for `COc1ccc(-c2cc(=O)n(-c3ccc([N+](=O)[O-])cc3)[nH]2)cc1`, the AC50 was 3.4 µM.
`O=C1C=Cc2ccccc2C1=O`: the AC50 was 14.9 µM.
Regarding `O=C(CCl)Oc1ccc2occ(C(=O)c3cccs3)c2c1`, the AC50 is > 38 µM (inactive).
To `Cc1ccc(C2=NN(C(=O)CCl)C(c3cccs3)C2)o1` (centres undefined) belongs > 38 µM (inactive); to `O=C1C(Br)=Cc2cccc3cccc1c23`, > 38 µM (inactive).
As to `CCCCCCCCCCOC(=O)Cn1c(COc2cccc(C)c2)[n+](C)c2ccccc21`, the AC50 was 7.35 µM.
In the case of `O=C(c1ccco1)c1coc2c1cc(O)c1ccccc12`, the AC50 was 26.2 µM.
As for `O=C(/C=C/c1ccccc1)c1ccc2c3c(cccc13)CC2`, the figure is 3.7 µM; as for `COCc1[nH]nc2c1C(c1ccccc1OC)C(C#N)=C(N)O2` (centres undefined), 36.5 µM; as for `O=C(CCl)Nc1ccccc1C(=O)Nc1ccc2c(c1)OCO2`, 10.5 µM.
As to `Cc1cccc(NC2=C(NC(=O)c3ccccc3)C(=O)c3ccccc3C2=O)c1`, the AC50 is 9.5 µM.
Take `Cc1cc(C)c(S(=O)(=O)/N=C2\C=C(Nc3ccc(C(=O)O)cc3)C(=O)c3ccccc32)c(C)c1`: the concentration at half-maximal activity (AC50) was 0.669 µM.
For the molecule `Cn1nc(-c2ccc(Cl)cc2)nc2c(=O)n(C)c(=O)nc1-2`, the concentration at half-maximal activity (AC50) is 0.0579 µM.
As to `CCc1[nH]nc2c1C(c1ccsc1)C(C#N)=C(N)O2` (centres undefined), the AC50 was > 38 µM (inactive).
As for `O=C(O)/C=C/C(=O)Nc1ccc(C2(c3ccc(NC(=O)/C=C/C(=O)O)cc3)c3ccccc3-c3ccccc32)cc1`, the figure is 4.61 µM; as for `CCOc1ccc(C(c2c(C)[nH][nH]c2=O)c2c(C)[nH][nH]c2=O)cc1OC`, 6.7 µM; as for `O=C(O)c1ccc(-n2c(=O)c3ccccc3c3ccccc3c2=O)cc1`, > 38 µM (inactive).
Take `CC(C)c1[nH]nc2c1C(Cc1ccccc1)C(C#N)=C(N)O2` (centres undefined): the AC50 is > 38 µM (inactive).
To `Cc1cc(C(=O)c2ccc(C(C)(C)C)cc2)c(NC(=O)CCl)s1` belongs 9.8 µM; to `O=[N+]([O-])c1c(NCc2ccco2)ccc2nonc12`, > 38 µM (inactive); to `Cc1ccc(-n2nc(C)c3c2OC(N)=C(C#N)C3c2ccoc2)cc1` (centres undefined), 6.18 µM.
To `O=C(CSC1=NCCS1)Nc1nc(-c2ccccc2)cs1` belongs 30.5 µM; to `O=C(Oc1ccc(-n2cnnn2)cc1)c1ccco1`, > 38 µM (inactive).
For `COc1ccc(NC(=S)Nc2ccc3nsnc3c2)cc1`, the AC50 was 25.2 µM.
For the molecule `O=C(O)COc1ccc(/C=C2/SC(=S)N(Cc3ccccc3)C2=O)cc1`, the AC50 is 31.6 µM.
To `COC(=O)c1c(NC(=O)/C=C/C(=O)O)sc(Cc2ccccc2)c1C` belongs 2.33 µM; to `CCS(=O)(=O)c1ncc(Cl)c(C(=O)Nc2ccc(S(=O)(=O)N(C)c3ccccc3)cc2)n1`, 1.66 µM.
As for `C/C(CC(=O)Nc1cc(C)ccn1)=N\NC(=O)COc1cccc(C)c1`, the AC50 was 11.1 µM.
To `COC(=O)c1ccccc1Sc1ncnc2onc(C)c12` belongs > 38 µM (inactive); to `O=C(NC1C(=O)NNC1c1ccc(Cl)cc1)c1ccc(F)cc1` (centres undefined), > 38 µM (inactive).
For `O=C(O)c1ccc2c3c(ncnc13)-c1ccccc1C2=O`, the AC50 is 7.47 µM.
As for `Cc1cccc(C)c1-n1cccc1/C=C1\SC(=S)N(c2cccc(C(=O)O)c2)C1=O`, the concentration at half-maximal activity (AC50) is 7.18 µM.

The values above are taken from PubChem BioAssay AID449750 (Broad Institute, 2010).
